Test results from patent US9675593B2, “Anti-fibrotic pyridinones” (InterMune, Inc., priority 2012, dated 2017).

Test system: TGF-b induced Endothelin-1 (ET-1) production
Experiment: ET-1 assay: inhibitory effect on TGF-b induced endothelin-1 production
Type: cell-based
Settings: Homo sapiens, Fibroblast; fibroblasts, stimulant (TGFb, serum, LPA etc), ET-1 by ELISA
Procedure: Assay of Inhibitory Effect on TGF-b induced Endothelin-1 Production
Fibroblasts (primary human lung and dermal, HFL-1, 3T3 etc) are seeded in 96-well plates at ˜15000 cells/well and serum starved for 0-48 hours. After media exchange, compounds serially diluted in DMSO are added to the cells. After a brief incubation of ˜30 min, stimulants (TGFb, serum, LPA etc) are added followed by further incubation for 16-48 hours. Media is then harvested and stored frozen in plate format for later endothelin-1 (ET-1) determination by ELISA. Toxicity measurements are made using the ATPlite kit (Perkin-Elmer). ET-1 is quantified using an ELISA kit (R&D Systems). The amount of ET-1 produced in the assay wells are back-calculated using the ELISA standard. The ability of a compound to inhibit ET-1 production is typically analyzed by fitting dose-response curves to a 4-parameter logistic function to obtain an EC50 value. A measure of cytotoxicity (CC50) is likewise reported from the same experiment using the ATPlite data.

| Structure (SMILES) | EC50 [µM] |
| --- | --- |
| O=C(Nc1cc(=O)n(-c2ccc(OC(F)(F)F)cc2)cc1-c1ccc(F)cc1)Oc1ccccc1 [Compound 113] | > 200 |
| O=c1ccc(-c2ccnnc2)cn1-c1ccc(OC(F)(F)F)cc1 [Compound 347] | 50 to 200 |
| Cc1cc(-c2cnn(C)c2)cn(-c2ccc(OC(F)(F)F)cc2)c1=O [Compound 352] | 50 to 200 |
